Measured values from patent US8404643B2, “Metastin derivatives and use thereof” (priority 2005, dated 2013).
Square brackets hold non-standard residues; d marks the D form. Peptide text beside a SMILES is read from it. Arg(Me) = CNC(=N)NCCC[C@H](N)C(=O)O; Hyp = O=C(O)[C@@H]1C[C@@H](O)CN1; Dab = NCC[C@H](N)C(=O)O; 2Abz = Nc1ccccc1C(=O)O; azaGly = NNC(=O)O

Target: T1, hOT7T175 (Homo sapiens, UniProt Q969F8)
T1 construct: expressed in transfected cells
Test: Assay for intracellular Ca ion level-increasing activity using FLIPR
Format: cell-based
Details: hOT7T175/CHO cells, relative to Metastin (1-54)
Outline: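 CHO/dhfr− cells stably transfected with hOT7T175, selected for high metastin response, loaded with Fluo3-AM for 1 h at 37 °C in HANKS/HBSS (pH 7.4) with probenecid. Peptides were diluted from 1×10^−3 M DMSO stock into HANKS/HBSS with 2.5 mM probenecid, 0.2% BSA, 0.1% CHAPS; intracellular Ca rise read by FLIPR.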

T1 sequence (Q969F8 whole entry L364H): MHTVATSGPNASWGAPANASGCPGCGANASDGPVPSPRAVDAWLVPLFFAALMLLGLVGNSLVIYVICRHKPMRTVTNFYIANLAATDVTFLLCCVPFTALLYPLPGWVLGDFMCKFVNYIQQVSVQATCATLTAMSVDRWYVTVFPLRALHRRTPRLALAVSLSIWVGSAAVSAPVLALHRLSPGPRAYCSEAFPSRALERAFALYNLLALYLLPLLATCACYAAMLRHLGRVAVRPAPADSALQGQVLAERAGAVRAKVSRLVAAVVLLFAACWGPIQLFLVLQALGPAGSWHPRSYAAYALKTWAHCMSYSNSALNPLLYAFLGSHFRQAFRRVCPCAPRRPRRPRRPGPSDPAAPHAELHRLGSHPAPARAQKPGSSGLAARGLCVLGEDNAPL

Compound | Specific Activity: intracellular Ca ion level-increasing activity [specific activity to Metastin (1-54)]
CC(=O)N[C@H](Cc1ccc(O)cc1)C(=O)N1C[C@H](O)C[C@H]1C(=O)N[C@@H](CC(N)=O)C(=O)N[C@H](C(=O)N[C@@H](Cc1ccccc1)C(=O)NNC(=O)N[C@@H](CC(C)C)C(=O)N[C@@H](CCCNC(=N)N)C(=O)N[C@@H](Cc1c[nH]c2ccccc12)C(N)=O)[C@@H](C)O [Compound No. 797, Ac-D-Tyr-Hyp-Asn-Thr-Phe-AzaGly-Leu-Arg-Trp-NH2] (Ac-[dY][Hyp]NTF[azaGly]LRW-NH2) | 1.4
CNC(=N)NCCC[C@H](NC(=O)[C@H](CC(C)C)NC(=O)NNC(=O)[C@H](Cc1ccccc1)NC(=O)[C@@H](C)NC(=O)[C@H](CC(N)=O)NC(=O)[C@@H]1C[C@@H](O)CN1C(=O)[C@@H](Cc1ccc(O)cc1)NC(C)=O)C(=O)N[C@@H](Cc1c[nH]c2ccccc12)C(N)=O [Compound No. 815, Ac-D-Tyr-Hyp-Asn-D-Ala-Phe-AzaGly-Leu-Arg(Me)-Trp-NH2] (Ac-[dY][Hyp]N[dA]F[azaGly]L[Arg(Me)]W-NH2) | 0.5
CNC(=N)NCCC[C@H](NC(=O)[C@H](CC(C)C)NC(=O)NNC(=O)[C@H](Cc1ccccc1)NC(=O)[C@@H](NC(=O)[C@H](CCN)NC(=O)[C@@H](Cc1c[nH]c2ccccc12)NC(=O)[C@@H](Cc1ccc(O)cc1)NC(C)=O)[C@@H](C)O)C(=O)N[C@@H](Cc1c[nH]c2ccccc12)C(N)=O [Compound No. 740, Ac-D-Tyr-D-Trp-Dab-Thr-Phe-AzaGly-Leu-Arg(Me)-Trp-NH2] (Ac-[dY][dW][Dab]TF[azaGly]L[Arg(Me)]W-NH2) | 1.1
CNC(=N)NCCC[C@H](NC(=O)[C@H](CC(C)C)NC(=O)NNC(=O)[C@H](Cc1ccccc1)NC(=O)[C@@H](NC(=O)[C@H](CC(N)=O)NC(=O)c1ccccc1NC(=O)[C@@H](Cc1ccc(O)cc1)NC(C)=O)[C@@H](C)O)C(=O)N[C@@H](Cc1c[nH]c2ccccc12)C(N)=O [Compound No. 728, Ac-D-Tyr-Abz(2)-Asn-Thr-Phe-AzaGly-Leu-Arg(Me)-Trp-NH2] (Ac-[dY][2Abz]NTF[azaGly]L[Arg(Me)]W-NH2) | 3.2
CNC(=N)NCCC[C@H](NC(=O)[C@H](CC(C)C)NC(=O)NNC(=O)[C@H](Cc1ccccc1)NC(=O)[C@@H](NC(=O)[C@H](CC(N)=O)NC(=O)[C@@H](CC(=O)O)NC(=O)[C@@H](Cc1ccc(O)cc1)NC(C)=O)[C@@H](C)O)C(=O)N[C@@H](Cc1c[nH]c2ccccc12)C(N)=O [Compound No. 735, Ac-D-Tyr-D-Asp-Asn-Thr-Phe-AzaGly-Leu-Arg(Me)-Trp-NH2] (Ac-[dY][dD]NTF[azaGly]L[Arg(Me)]W-NH2) | 3.4
CNC(=N)NCCC[C@H](NC(=O)[C@H](CC(C)C)NC(=O)NNC(=O)[C@H](Cc1ccccc1)NC(=O)[C@@H](NC(=O)[C@H](CCN)NC(=O)[C@@H]1C[C@@H](O)CN1C(=O)[C@@H](Cc1ccc(O)cc1)NC(C)=O)[C@@H](C)O)C(=O)N[C@@H](Cc1c[nH]c2ccccc12)C(N)=O [Compound No. 864, Ac-D-Tyr-Hyp-Dab-Thr-Phe-AzaGly-Leu-Arg(Me)-Trp-NH2] (Ac-[dY][Hyp][Dab]TF[azaGly]L[Arg(Me)]W-NH2) | 1.0
CC(=O)N[C@H](Cc1ccc(O)cc1)C(=O)N[C@H](Cc1c[nH]c2ccccc12)C(=O)N[C@@H](CC(N)=O)C(=O)N[C@H](C(=O)N[C@@H](Cc1ccccc1)C(=O)NNC(=O)N[C@@H](CC(C)C)C(=O)N[C@H](CCCNC(=N)N)C(=O)N[C@@H](Cc1c[nH]c2ccccc12)C(N)=O)[C@@H](C)O [Compound No. 708, Ac-D-Tyr-D-Trp-Asn-Thr-Phe-AzaGly-Leu-D-Arg-Trp-NH2] (Ac-[dY][dW]NTF[azaGly]L[dR]W-NH2) | 12.8
